Reference: patent publication US4160845A, “Fungicidal N-(haloaliphaticthio)halovinylsulfonamides” (Chevron Research Company, priority 1976, dated 1979)

Columns and labels:
Type in all cases: cell-based
Conditions in all cases: paper strips on potato dextrose agar, 25° C., 24 hours
[1] = test system: Rhizoctonia solani; experiment: Mycelial inhibition test, Rhizoctonia solani
[2] = test system: Aspergillus niger; experiment: Mycelial inhibition test, Aspergillus niger
[3] = test system: Fusarium moniloforma; experiment: Mycelial inhibition test, Fusarium moniloforma

Row | SMILES | Mycelia Inhibition, micrograms/cm for 99% control, R [1] | Mycelia Inhibition, micrograms/cm for 99% control, A [2] | Mycelia Inhibition, micrograms/cm for 99% control, F [3]
1 | Cc1cc(Sc2ccccc2)ccc1NS(=O)(=O)C(Cl)=C(Cl)Cl [Compound 20] | > 1.7 micrograms/cm | > 1.7 micrograms/cm | > 1.7 micrograms/cm
2 | CC(C)NS(=O)(=O)C(Cl)=C(Cl)Cl [Compound 14] | > 1.7 micrograms/cm | > 1.7 micrograms/cm | > 1.7 micrograms/cm
3 | CC(C)N(SC(Cl)(Cl)Cl)S(=O)(=O)C(Cl)=C(Cl)Cl [Compound 4] | 0.19 micrograms/cm | 0.68 micrograms/cm | > 1.7 micrograms/cm
4 | O=S(=O)(Nc1ccc(Cl)c(Cl)c1)C(Cl)=C(Cl)Cl [Compound 21] | > 1.7 micrograms/cm | > 1.7 micrograms/cm | > 1.7 micrograms/cm
5 | CNS(=O)(=O)C(Cl)=C(Cl)Cl [Compound 13] | > 1.7 micrograms/cm | > 1.7 micrograms/cm | > 1.7 micrograms/cm
6 | O=S(=O)(Nc1ccccc1)C(Cl)=C(Cl)Cl [Compound 16] | > 1.7 micrograms/cm | > 1.7 micrograms/cm | > 1.7 micrograms/cm
7 | Cc1ccc(N(SC(Cl)(Cl)Cl)S(=O)(=O)C(Cl)=C(Cl)Cl)cc1 [Compound 11] | > 1.7 micrograms/cm | > 1.7 micrograms/cm | > 1.7 micrograms/cm
8 | O=S(=O)(C(Cl)=C(Cl)Cl)N(SC(Cl)(Cl)Cl)C1CCCCC1 [Compound 5] | 1.1 micrograms/cm | > 1.7 micrograms/cm | > 1.7 micrograms/cm
9 | O=S(=O)(Nc1ccc(Cl)cc1)C(Cl)=C(Cl)Cl [Compound 19, N-(p-chlorophenyl)trichlorovinylsulfonamide] | > 1.7 micrograms/cm | > 1.7 micrograms/cm | > 1.7 micrograms/cm
10 | O=S(=O)(NC1CCCCC1)C(Cl)=C(Cl)Cl [Compound 15] | > 1.7 micrograms/cm | > 1.7 micrograms/cm | > 1.7 micrograms/cm
11 | Cc1ccc(NS(=O)(=O)C(Cl)=C(Cl)Cl)cc1 [Compound 18] | > 1.7 micrograms/cm | > 1.7 micrograms/cm | > 1.7 micrograms/cm
12 | O=S(=O)(C(Cl)=C(Cl)Cl)N(SC(Cl)(Cl)Cl)c1ccccc1 [Compound 7, N-phenyl-N-(trichloromethylthio)trichlorovinylsulfonamide] | > 1.7 micrograms/cm | > 1.5 micrograms/cm | > 1.7 micrograms/cm
13 | CN(SC(Cl)(Cl)Cl)S(=O)(=O)C(Cl)=C(Cl)Cl [Compound 1, N-methyl-N-(trichloromethylthio)trichlorovinylsulfonamide] | 0.18 micrograms/cm | 0.42 micrograms/cm | 1.7 micrograms/cm
14 | Cc1cccc(C)c1NS(=O)(=O)C(Cl)=C(Cl)Cl [Compound 17] | > 1.7 micrograms/cm | > 1.7 micrograms/cm | > 1.7 micrograms/cm
15 | Cc1cccc(C)c1N(SC(Cl)(Cl)Cl)S(=O)(=O)C(Cl)=C(Cl)Cl [Compound 9] | 0.33 micrograms/cm | > 1.7 micrograms/cm | > 1.7 micrograms/cm
